In the test the target is T1, human MC4R (Homo sapiens, UniProt P32245).
T1 construct: expressed in transfected cells
Description: Functional cAMP assay (CisBio HTRF) in BHK cells expressing human MC4R. Type of test: cell-based. As to conditions: for MC1R/MC4R cAMP EC50 ratio: MC1R cAMP EC50 divided by MC4R cAMP EC50. On the procedure:
In order to assess the potency of the compounds on human MC1R and human MC4R cAMP signalling was measured.
cAMP induction was measured by c-AMPdynamic2 assay, HTRF 62AM4PEC system from CisBio for the human MC1R and human MC4R according to the protocol provided by the vendor. BHK cells expressing the human MC1 or MC4 receptor were generated by stable transfection with expression vectors encoding the cDNA of either MC1R or MC4R.
In details; 25 μl compound—or standard solution were added in the respective wells. Compound was reconstituted in buffer (DMEM w/o phenol red, 10 mM
Hepes, lx Glutamine, 0.1% OV-albumin1, 1 mM IBMX) and serially diluted starting at 2 μM, 10-fold seven times. Dilutions were carried out in the same aforementioned buffer to the desired working concentration ranges (2× higher than the final concentration). 25 μl cell solution was then added and allowed to incubate for 30 min while lightly shaking, at 25° C. […] The provided components for the assay were reconstituted according to the CisBio assay protocol “3.1 supplied reagents and preparation procedure” in MilliQ purification system H2O and diluted 1:20 in lysis buffer. 25 μl cAMP-d2 and 25 μl Cryptate conjugate were added to all wells.
Plates were centrifuged at 1500 rpm for 30 sec and incubated for 1 h, lightly shaking, at 25° C. in a hotel stacker. The plates were read on Mithras LB 940 provided by Berthold Technologies The data were analysed by non-linear regression analysis of binding curves, using the Windows™ program GraphPad™ Prism (GraphPad Software, USA).
The latter is used when no full curve can be obtained in the concentration ranges indicated above.
A general note: Changes in cAMP serve as a functional read-out for many G protein-coupled receptors.

The mark [1] stands for this setting: BHK cells expressing human MC4R, '>' = highest dose used with no response, read-out: MC4R cAMP EC50.

pEC50: −log10 of the molar value. Where two headings read alike, the source gives them in different places. Starred links: 1 amine or outer side, 2 acyl side, 3 side chain; linkers in the order of their positions; H or OH if unused. Positions of bridges follow the written chain, without caps; N, C: chain ends. Non-standard residues stand in square brackets, D forms with d. Residues, ends and D or L forms follow the SMILES beside them. Hyp = O=C(O)[C@@H]1C[C@@H](O)CN1; Cit = NC(=O)NCCC[C@H](N)C(=O)O; d(hCys) = N[C@H](CCS)C(=O)O; Orn = NCCC[C@H](N)C(=O)O; Thz = O=C(O)[C@@H]1CSCN1; Api = NC1(C(=O)O)CCNCC1; X1 = C(CN[*:2])CS[*:1]; Aib = CC(C)(N)C(=O)O

T1 sequence (P32245 whole entry): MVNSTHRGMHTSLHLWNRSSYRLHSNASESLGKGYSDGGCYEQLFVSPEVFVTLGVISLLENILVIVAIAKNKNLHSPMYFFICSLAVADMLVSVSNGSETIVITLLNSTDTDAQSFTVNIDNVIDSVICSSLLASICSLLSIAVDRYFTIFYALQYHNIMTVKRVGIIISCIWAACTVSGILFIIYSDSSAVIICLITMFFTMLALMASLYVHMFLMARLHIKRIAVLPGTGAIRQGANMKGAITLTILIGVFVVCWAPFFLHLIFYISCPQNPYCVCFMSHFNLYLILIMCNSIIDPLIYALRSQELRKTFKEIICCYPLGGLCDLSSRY

For `C[C@@H]1NC(=O)[C@@H]2CSSC[C@H](NC(=O)[C@H](Cc3c[nH]c4ccccc34)NC(=O)[C@H](CCN)NC(=O)[C@@H](Cc3ccccc3)NC(=O)[C@H](Cc3c[nH]cn3)NC1=O)C(=O)N[C@@H](C)C(=O)N[C@@H](Cc1c[nH]cn1)C(=O)N[C@H](Cc1ccccc1)C(=O)N[C@@H](CCN)C(=O)N[C@@H](Cc1c[nH]c3ccccc13)C(=O)N2` [Chem. 17, c[c[Cys-Ala-His-D-Phe-Dab-Trp-Cys]- Ala-His-D-Phe-Dab-Trp]], the “MC1R/MC4R cAMP EC50 ratio” value is on record as 288.

On to `CC1(C)NC(=O)[C@@H]2CSSC[C@H](NC(=O)[C@H](Cc3c[nH]c4ccccc34)NC(=O)[C@H](CCCNC(=N)N)NC(=O)[C@@H](Cc3ccccc3)NC(=O)[C@@H]3CCCN3C1=O)C(=O)NC(C)(C)C(=O)N1CCC[C@H]1C(=O)N[C@H](Cc1ccccc1)C(=O)N[C@@H](CCCNC(=N)N)C(=O)N[C@@H](Cc1c[nH]c3ccccc13)C(=O)N2` [Chem. 39, c[c[Cys-Aib-Pro-D-Phe-Arg-Trp-Cys]- Aib-Pro-D-Phe-Arg-Trp]] (cyclo([Aib]P[dF]RWC[Aib]P[dF]RWC); disulfide 6-12), for which the “MC1R/MC4R cAMP EC50 ratio” value was 37.

For `C[C@@H]1NC(=O)[C@H](C)NC(=O)[C@H](CCCN)NC(=O)[C@H](CCCCN)NC(=O)[C@@H]2CSSC[C@H](NC(=O)[C@H](Cc3c[nH]c4ccccc34)NC1=O)C(=O)N1CSC[C@H]1C(=O)N[C@@H](Cc1c[nH]cn1)C(=O)N[C@H](Cc1ccccc1)C(=O)N[C@@H](Cc1c[nH]cn1)C(=O)N[C@@H](Cc1c[nH]c3ccccc13)C(=O)N2` [Chem. 115, c[c[Cys-THAZ-His-D-Phe-His-Trp-C ys]-Lys-Orn-Ala-Ala-Trp]] (cyclo(AAWC[Thz]H[dF]HWCK[Orn]); disulfide 4-10), the pEC50 is 10.00 and the “MC1R/MC4R cAMP EC50 ratio” value is 1340.

With `N=C(N)NCCC[C@@H]1NC(=O)[C@@H](Cc2ccccc2)NC(=O)[C@H](Cc2c[nH]cn2)NC(=O)[C@@H]2C[C@@H](O)CN2C(=O)[C@@H]2CSSC[C@H](NC(=O)[C@H](Cc3c[nH]c4ccccc34)NC1=O)C(=O)N1C[C@H](O)C[C@H]1C(=O)N[C@@H](Cc1c[nH]cn1)C(=O)N[C@H](Cc1ccccc1)C(=O)N[C@@H](CCCNC(=N)N)C(=O)N[C@@H](Cc1c[nH]c3ccccc13)C(=O)N2` [Chem. 32, c[c[Cys-Hyp-His-D-Phe-Arg-Trp- Cys]-Hyp-His-D-Phe-Arg-Trp]] (cyclo(C[Hyp]H[dF]RWC[Hyp]H[dF]RW); disulfide 1-7), the pEC50 was 9.92 and the “MC1R/MC4R cAMP EC50 ratio” value is 17.

For `NCCCC[C@@H]1NC(=O)[C@@H]2CSSC[C@H](NC(=O)[C@H](Cc3c[nH]c4ccccc34)NC(=O)[C@H](CCCNC(N)=O)NC(=O)[C@@H](Cc3ccccc3)NC(=O)[C@H](Cc3c[nH]cn3)NC1=O)C(=O)N[C@@H](CCCCN)C(=O)N[C@@H](Cc1c[nH]cn1)C(=O)N[C@H](Cc1ccccc1)C(=O)N[C@@H](CCCNC(N)=O)C(=O)N[C@@H](Cc1c[nH]c3ccccc13)C(=O)N2` [Chem. 55, c[c[Cys-Lys-His-D-Phe-Cit-Trp-Cys]- Lys-His-D-Phe-Cit-Trp]] (cyclo(CKH[dF][Cit]WCKH[dF][Cit]W); disulfide 1-7), the “MC1R/MC4R cAMP EC50 ratio” value came to 41. Moreover, the pEC50 under setting [1] is 10.00.

As to `C[C@@H]1NC(=O)[C@@H]2CSSC[C@H](NC(=O)[C@H](CCCNC(=N)N)NC(=O)[C@H](CCCNC(=N)N)NC(=O)[C@H](CCC(=O)O)NC(=O)[C@H](CCCNC(=N)N)NC1=O)C(=O)N1CSC[C@H]1C(=O)N[C@@H](Cc1c[nH]cn1)C(=O)N[C@H](Cc1ccccc1)C(=O)N[C@@H](Cc1c[nH]cn1)C(=O)N[C@@H](Cc1c[nH]c3ccccc13)C(=O)N2` [Chem. 113, c[c[Cys-THAZ-His-D-Phe-His-Trp- Cys]-Ala-Arg-Glu-Arg-Arg]] (cyclo(ARERRC[Thz]H[dF]HWC); disulfide 6-12), the pEC50 is 10.70 and the “MC1R/MC4R cAMP EC50 ratio” value stood at 2112.

On to `O=C1N[C@H]2CSSC[C@H](NC(=O)[C@H](Cc3c[nH]c4ccccc34)NC(=O)[C@H](Cc3c[nH]cn3)NC(=O)[C@@H](Cc3ccccc3)NC(=O)[C@H](Cc3c[nH]cn3)NC(=O)C3(CCNCC3)NC2=O)C(=O)NC2(CCNCC2)C(=O)N[C@@H](Cc2c[nH]cn2)C(=O)N[C@H](Cc2ccccc2)C(=O)N[C@@H](Cc2c[nH]cn2)C(=O)N[C@H]1Cc1c[nH]c2ccccc12` [Chem. 50, c[c[Cys-ACP-His-D-Phe-His-Trp-Cys]- ACP-His-D-Phe-His-Trp]] (cyclo([Api]H[dF]HWC[Api]H[dF]HWC); disulfide 6-12), for which the “MC1R/MC4R cAMP EC50 ratio” value is 56.

Turning to `CC1(C)NC(=O)[C@@H]2CSSC[C@H](NC(=O)[C@H](Cc3c[nH]c4ccccc34)NC(=O)[C@H](CCCNC(=N)N)NC(=O)[C@@H](Cc3ccccc3)NC(=O)[C@H](Cc3c[nH]cn3)NC1=O)C(=O)NC(C)(C)C(=O)N[C@@H](Cc1c[nH]cn1)C(=O)N[C@H](Cc1ccccc1)C(=O)N[C@@H](CCCNC(=N)N)C(=O)N[C@@H](Cc1c[nH]c3ccccc13)C(=O)N2` [Chem. 9, c[c[Cys-Aib-His-D-Phe-Arg-Trp-Cys]- Aib-His-D-Phe-Arg-Trp]] (cyclo([Aib]H[dF]RWC[Aib]H[dF]RWC); disulfide 6-12), the “MC1R/MC4R cAMP EC50 ratio” value is recorded as 201.

On to `C[C@@H]1NC(=O)[C@@H]2CSSC[C@H](NC(=O)[C@H](CCCNC(=N)N)NC(=O)[C@H](CCCN)NC(=O)[C@H](CCC(=O)O)NC(=O)[C@H](CCCN)NC1=O)C(=O)N1CSC[C@H]1C(=O)N[C@@H](Cc1c[nH]cn1)C(=O)N[C@H](Cc1ccccc1)C(=O)N[C@@H](Cc1c[nH]cn1)C(=O)N[C@@H](Cc1c[nH]c3ccccc13)C(=O)N2` [Chem. 119, c[c[Cys-THAZ-His-D-Phe-His-Trp- Cys]-Ala-Orn-Glu-Orn-Arg]] (cyclo(A[Orn]E[Orn]RC[Thz]H[dF]HWC); disulfide 6-12), for which the pEC50 is 10.22 and the “MC1R/MC4R cAMP EC50 ratio” value came to 1660.

As to `CC(=O)N[C@@H](Cc1c[nH]cn1)C(=O)N[C@H](Cc1ccccc1)C(=O)N[C@@H](CCCNC(=N)N)C(=O)N[C@@H](Cc1c[nH]c2ccccc12)C(=O)N[C@@H](C)C(=O)N[C@@H]1CCSSCCCNC(=O)[C@H](C)NC(=O)[C@H](Cc2c[nH]c3ccccc23)NC(=O)[C@H](CCCNC(=N)N)NC(=O)[C@@H](Cc2ccccc2)NC(=O)[C@H](Cc2c[nH]cn2)NC1=O` [Chem. 5, c[c[Cys-His-D-Phe-Arg-Trp-Ala-Cys]- His-D-Phe-Arg-Trp-Ala]] (Ac-H[dF]RWA[d(hCys)]H[dF]RWA; linker 6-C via X1), the “MC1R/MC4R cAMP EC50 ratio” value was determined as 31. For the same compound, the pEC50 under setting [1] was 9.68.

As to `C[C@@H]1NC(=O)[C@@H]2CSSC[C@H](NC(=O)[C@H](CCCNC(=N)N)NC(=O)[C@H](Cc3c[nH]c4ccccc34)NC(=O)[C@H](CCCNC(=N)N)NC(=O)[C@@H](Cc3ccccc3)NC(=O)[C@H](Cc3c[nH]cn3)NC1=O)C(=O)N[C@@H](C)C(=O)N[C@@H](Cc1c[nH]cn1)C(=O)N[C@H](Cc1ccccc1)C(=O)N[C@@H](CCCNC(=N)N)C(=O)N[C@@H](Cc1c[nH]c3ccccc13)C(=O)N[C@@H](CCCNC(=N)N)C(=O)N2` [Chem. 69, c[c[Cys-Ala-His-D-Phe-Arg-Trp-Arg- Cys]-Ala-His-D-Phe-Arg-Trp-Arg]] (cyclo(AH[dF]RWRCAH[dF]RWRC); disulfide 7-14), the “MC1R/MC4R cAMP EC50 ratio” value stood at 5.

As a reminder, the pEC50 is the EC50 on a negative log10 scale, so that one unit is a factor of ten.

The values are drawn from patent US20200223889A1, “Bicyclic Compounds Capable of Binding to Melanocortin 4 Receptor” (Novo Nordisk A/S, priority 2017, published 2020).
